pEC50, pIC50: −log10 of the molar value. Several values for one entry are separate records, joined by “and”; a condition that tells them apart may be missing. Identical values can stand only once. Like-named read-outs stand apart in the source and are kept apart here.
Experiments:
[1] = test system: HCT 116 human colorectal carcinoma cells; assay: Alamar Blue cell proliferation assay, HCT 116; assay type: cell-based; settings: HCT 116 cells, 72 h
Description: (§1) Kinase assays are performed using full-length recombinant Plk1 enzyme produced in a baculovirus expression system and casein from bovine milk as a substrate. Results represent the means of 2 independent experiments with each data point measured in duplicate. NCI-H460 human non-small cell lung cancer and HCT 116 human colon carcinoma cell lines are used in Alamar Blue™ based proliferation assays. Results represent the means of 3 dose titrations for each cell line with each data point measured in duplicate. Two independent kinase assay experiments are carried out to determine the inhibitory activity of compound (12B) on the Plk1 enzyme. 7 concentrations of compound (12B) are used and each concentration is tested in duplicate measurements.
(§2) For each cell line a proliferation assay experiment is carried out to determine the EC50 values in triplicate. 12 concentrations of each compound are used and each concentration is tested in duplicate measurements.
(§3) HCT 116 human colorectal carcinoma (ATCC CCL 247) and NCI-H460 human lung carcinoma (ATCC HTB-177) cells are used in an Alamar Blue™ based proliferation assay.
(§4) The Alamar Blue™ assay is designed to quantitatively measure the proliferation of cells by incorporating a fluorometric/colorimetric growth indicator that is based on the detection of metabolic activity in viable cells.
(§5) HCT 116 and NCI-H460 cells are grown in IMDM medium containing 10% FCS and 2 mM L-glutamine. They are maintained at 37° C. and 5% CO2 in a humidified atmosphere with a split ratio of 1:5. For proliferation assays in the 96-well format, penicillin-streptomycin is added to the medium at a final concentration of 100 u/ml penicillin and 100 μg/ml streptomycin.
(§6) On day one of the experiment, 1000 cells in 180 μl medium are seeded into each well of a sterile 96-well flat-bottom plate. The plates are kept in the incubator overnight. The compounds are dissolved in DMSO at a concentration of 1000 μM. On day two of the experiment, 12 serial dilutions (1:3) of the compounds are prepared in medium containing 0.1% DMSO. 20 μl of the dilutions are added to each well to yield a final volume of 200 μl per well. As a control, medium containing 0.1% DMSO is added to the designated wells. The cells are then incubated for 72 h. After this incubation period, 20 μl of Alamar Blue™ is added to each well. After 6 h of incubation, the plates are measured in a fluorescence spectrophotometer (excitation 531 nm, emission 595 nm, slits 15, integrate time 0.1). All data points are measured in duplicates.
(§7) The mean value from the duplicates is taken and the background is subtracted. The “0.1% DMSO value” (the mean value obtained from wells containing cells plus 0.1% DMSO containing medium) is taken as “100% control”. […]

hERG channel = molecular target: T1, hERG channel (Homo sapiens, UniProt Q12809); assay: hERG channel assay (whole-cell patch clamp); assay type: cell-based; settings: HEK 293 cells stably transfected with hERG; 0.3, 1, 3, 10 μM tested; read-out: residual currents value (half-inhibitory concentration from fit to residual hERG current)
T1 construct: expressed in transfected cells; host or cells: HEK293 cells, stably transfected; cDNA from M. Sanguinetti, University of Utah
Description: HEK (human embryonic kidney) 293 cells are stably transfected with hERG cDNA (obtained courtesy of M. Sanguinetti, University of Utah). Cells determined for use in patch clamp experiments are plated on glass coverslips in 24 well plates and are cultivated without antibiotic during this time.
Coverslips are placed at the bottom of a 2 mL perfusion chamber mounted on the stage of an inverted microscope. Cells are superfused with a bath solution containing (mM): NaCl (137), KCl (4.0), MgCl2 (1.0), CaCl2 (1.8), Glucose (10), HEPES (10), pH 7.4 with NaOH. […]
Membrane currents are recorded using an EPC-10 or equivalent patch clamp amplifier (HEKA Electronics, Lambrecht, FRG) using the whole-cell configuration of the patch-clamp technique. hERG-mediated inactivating tail currents are elicited using a brief hyperpolarising pulse after channel inactivation at a depolarised potential.
Four concentrations of the compound of formula (12B) according to the present invention (0.3, 1, 3, 10 μM) are applied on different cells. A steady state level of baseline current is measured prior to the application of the test article. […]
Peak current amplitudes are measured for each hyperpolarising step. […] Residual currents (I/Io) are calculated for each cell as the fraction of actual average peak current and average baseline peak current. Current inhibition is expressed as (1−I/I0)*100%. […]

human Plk1 enzyme = molecular target: T2, human Plk1 enzyme (Homo sapiens, UniProt P53350); assay: Plk1 low enzyme inhibition (kinase) assay; assay type: biochemical; settings: casein substrate, 7.5 μM ATP
T2 construct: The full-length coding region of the human Plk1 enzyme (residues 1-603); made in house; host or cells: Sf21 insect cells, baculovirus (pAcG2T vector, BD Biosciences)
Description: as §1
The compound is dissolved in DMSO at a concentration of 10 mM. For the proliferation assay and the first kinase assay the compound is freshly dissolved. For the second kinase assay a 10 mM stock solution in DMSO is used.
A baculoviral expression system is used to generate full-length recombinant Plk1 enzyme for the assay. Casein from bovine milk is used as a substrate. All other reagents are from the highest grade of purity commercially available. […]

[2] = test system: NCI-H460 human lung carcinoma cells; assay: Alamar Blue cell proliferation assay, NCI-H460; assay type: cell-based; settings: 72 h
Description: as §1, §2, §3, §4, §5, §6, §7

[3] = measurement 1, read-out: Measurement 1 EC50
[4] = measurement 2, read-out: Measurement 2 EC50
[5] = measurement 3, read-out: Measurement 3 EC50

T2 sequence (P53350 whole entry, the tested form may be a part): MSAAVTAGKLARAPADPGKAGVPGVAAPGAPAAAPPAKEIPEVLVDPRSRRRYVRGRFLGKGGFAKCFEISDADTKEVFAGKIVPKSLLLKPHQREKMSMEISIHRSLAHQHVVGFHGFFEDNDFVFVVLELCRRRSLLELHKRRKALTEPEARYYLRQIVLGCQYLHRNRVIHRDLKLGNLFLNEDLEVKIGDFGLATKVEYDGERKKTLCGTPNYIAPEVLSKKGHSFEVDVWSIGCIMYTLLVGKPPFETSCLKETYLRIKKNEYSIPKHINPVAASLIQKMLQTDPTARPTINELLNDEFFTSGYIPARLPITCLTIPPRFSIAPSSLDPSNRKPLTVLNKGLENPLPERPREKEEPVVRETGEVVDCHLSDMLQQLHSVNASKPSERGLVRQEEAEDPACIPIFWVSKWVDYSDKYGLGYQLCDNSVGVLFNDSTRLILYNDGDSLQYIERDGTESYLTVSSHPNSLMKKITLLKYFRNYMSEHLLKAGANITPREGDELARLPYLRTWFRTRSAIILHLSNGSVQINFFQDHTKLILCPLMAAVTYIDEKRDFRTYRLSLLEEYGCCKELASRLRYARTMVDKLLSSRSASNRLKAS
T1 sequence (Q12809 whole entry): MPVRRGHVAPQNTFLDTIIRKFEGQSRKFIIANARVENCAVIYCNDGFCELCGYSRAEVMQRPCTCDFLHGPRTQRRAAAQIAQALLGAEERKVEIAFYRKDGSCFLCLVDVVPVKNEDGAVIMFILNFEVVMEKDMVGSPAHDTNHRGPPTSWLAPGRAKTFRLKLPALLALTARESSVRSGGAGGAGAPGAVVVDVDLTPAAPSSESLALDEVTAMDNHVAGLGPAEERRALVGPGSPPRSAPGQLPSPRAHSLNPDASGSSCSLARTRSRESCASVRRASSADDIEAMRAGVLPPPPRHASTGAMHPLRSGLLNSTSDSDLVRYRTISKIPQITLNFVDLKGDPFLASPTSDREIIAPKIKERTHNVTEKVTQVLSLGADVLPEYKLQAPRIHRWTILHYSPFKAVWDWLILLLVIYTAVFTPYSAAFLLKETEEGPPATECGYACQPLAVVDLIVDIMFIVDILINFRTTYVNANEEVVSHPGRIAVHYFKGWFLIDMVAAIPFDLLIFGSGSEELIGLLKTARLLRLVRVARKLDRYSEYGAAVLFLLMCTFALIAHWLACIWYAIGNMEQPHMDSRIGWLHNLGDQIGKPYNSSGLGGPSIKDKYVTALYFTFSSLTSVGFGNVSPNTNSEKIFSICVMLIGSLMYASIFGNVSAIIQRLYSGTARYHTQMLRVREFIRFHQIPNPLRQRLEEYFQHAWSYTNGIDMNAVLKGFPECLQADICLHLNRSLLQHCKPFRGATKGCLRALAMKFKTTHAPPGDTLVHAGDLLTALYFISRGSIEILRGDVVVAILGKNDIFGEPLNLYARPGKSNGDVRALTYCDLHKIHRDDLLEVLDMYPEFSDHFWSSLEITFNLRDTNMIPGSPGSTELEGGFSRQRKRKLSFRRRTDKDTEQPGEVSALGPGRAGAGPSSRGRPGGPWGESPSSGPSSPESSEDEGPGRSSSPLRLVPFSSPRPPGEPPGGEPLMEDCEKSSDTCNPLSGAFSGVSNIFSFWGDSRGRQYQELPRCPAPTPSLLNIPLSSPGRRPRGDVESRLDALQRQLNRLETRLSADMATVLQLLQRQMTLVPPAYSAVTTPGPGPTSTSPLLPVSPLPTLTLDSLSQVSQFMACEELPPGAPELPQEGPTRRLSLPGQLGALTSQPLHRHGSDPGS

pEC50 ([1]; mean of 3, read-out: Mean EC50): 6.56 | pEC50 [1, 3]: 6.51 | pEC50 [1, 4]: 6.47 | pEC50 [1, 5]: 6.76 | pIC50 (human Plk1 enzyme; mean of 2 independent experiments, read-out: Mean IC50): 8.10 | pIC50 (human Plk1 enzyme; single experiments (experiment number 1, 2), read-out: IC50): 8.09 and 8.10 | pEC50 ([2]; mean of 3, read-out: Mean EC50): 6.37 | pEC50 [2, 3]: 6.29 | pEC50 [2, 4]: 6.33 | pEC50 [2, 5]: 6.52
Compound: CCC1(O)C(=O)N(C)c2cnc(Nc3ccc(C(=O)N[C@H]4CC[C@H](N5CCN(CC6CC6)CC5)CC4)cc3OC)nc2N1C(C)C (some centres unmarked) [compound 12B]
pIC50 (hERG channel): 5.02

From patent US20120329803A1, “Dihydropteridinones, method for production and use thereof” (BOEHRINGER INGELHEIM INTERNATIONAL GMBH, priority 2010, published 2012)
